Data taken from patent US9096539B2, “Substituted 4,5-dihydro-2H-benzo[e]indazole-9-carboxylates for the treatment of diabetes and related disorders” (Council of Scientific & Industrial Research, priority 2012, dated 2015).
pIC50: −log10 of the molar value. Like-named read-outs stand apart in the source and are kept apart here.

Tests used:
[1] = tested on: sucrose loaded normoglycaemic rats; test: Antihyperglycaemic activity on sucrose loaded normoglycaemic rats (SLM); format: in vivo, rat; conditions: for Blood Glucose Profile 0 min: 0 min (fasting baseline); for Blood Glucose Profile 0 min / Blood Glucose Profile 30 min / Blood Glucose Profile 60 min / Blood Glucose Profile 90 min / Blood Glucose Profile 120 min / % Antihyperglycaemic activity SLM: sucrose loaded normoglycaemic rats, compounds 100 mg/kg, Januvia 50 mg/kg; for Blood Glucose Profile 0 min / Blood Glucose Profile 30 min / Blood Glucose Profile 60 min / Blood Glucose Profile 90 min / Blood Glucose Profile 120 min: mean ± S.E.; for Blood Glucose Profile 30 min: 30 min post sucrose; for Blood Glucose Profile 60 min: 60 min post sucrose; for Blood Glucose Profile 90 min: 90 min post sucrose; for Blood Glucose Profile 120 min: 120 min post sucrose; for % Antihyperglycaemic activity SLM: AUC vs control, oral; for improvement in glucose tolerance: sucrose loaded normoglycemic rats, 100 mg/kg b.w., result in words
Experimental: (§1) The test compounds and standard antidiabetic drug Januvia were prepared in 1.0% freshly prepared Gum acacia.
Assessment of Test Compounds for Antihyperglycaemic Activity on Sucrose Loaded Normoglycaemic Rats—
In order to search towards the antidiabetic activity, synthetic compounds were preliminary evaluated for their effect on glucose tolerance in normal rats. It is an indirect effect of measuring antihyperglycaemic activity. Male albino rats of Wistar strain of body weight 160±20 g were selected for this study. The blood glucose of each animal was checked by glucometer using glucostrips (Accu-check) after 16 hours starvation. Animals showing blood glucose between 60 to 80 mg/dl (3.33 to 4.44 mM) were divided into groups of five to six animals in each. Rats of experimental group were administered suspension of the desired test compound orally (made in 1.0% gum acacia). The standard dose decided for Synthetic compounds is 100 mg/kg body weight. Animals of control group were given an equal amount of 1.0% gum acacia. A sucrose load (10.0 g/kg) was given to each animal orally exactly after 30 min post administration of the test sample/vehicle. Blood glucose profile of each rat was again determined at 30, 60, 90 and 120 min post administration of sucrose by glucometer. Food but not water was withheld from the cages during the course of experimentation. Quantitative glucose tolerance of each animal was calculated by area under curve (AUC) method using Prism Software. Comparing the AUC of experimental and control groups determined the percentage antihyperglycaemic activity. Statistical comparison was made by Dunnett's test.
(§2) Quantitative glucose tolerance of each animal was calculated by the area under the curve (AUC) method using Prism Software. The area under the curve of the control group and the experimental group was compared to determine the percent antihyperglycaemic activity. Statistical comparisons were performed by one-way analysis of variance (ANOVA), followed by Dunnett's multiple range test (DMRT). The results were considered statistically significant if the ‘p’ values were 0.05 or less. Results were expressed as mean±SEM.

[2] = tested on: low dosed STZ induced diabetic rats; test: Antihyperglycaemic activity in low dosed streptozotocin induced diabetic rats (STZ); format: in vivo, rat; conditions: for Blood Glucose Profile 0 min (Pre treatment): 0 min pre treatment (fasting baseline); for Blood Glucose Profile 0 min (Pre treatment) / Blood Glucose Profile 30 min (Post treatment) / Blood Glucose Profile 60 min (Post treatment) / Blood Glucose Profile 90 min (Post treatment) / Blood Glucose Profile 120 min (Post treatment) / Blood Glucose Profile 180 min (Post treatment) / Blood Glucose Profile 240 min (Post treatment) / Blood Glucose Profile 300 min (Post treatment) / Blood Glucose Profile 1440 min (Post treatment) / % Antihyperglycaemic activity STZ 0-5 h AUC / % Antihyperglycaemic activity STZ 0-24 h AUC: low dosed STZ diabetic rats, compounds 100 mg/kg, Januvia 50 mg/kg; for % Antihyperglycaemic activity STZ 0-5 h AUC / % Antihyperglycaemic activity STZ 0-24 h AUC: oral; for lowering in the hyperglycaemia of the diabetic rats: low dosed streptozotocin induced diabetic rats, 100 mg/kg, result in words
Experimental: as §1
Assessment of Test Compounds for Antihyperglycaemic Activity in Low Dosed Streptozotocin Induced Diabetic Rats—
Induction of Diabetes in Rats:
Overnight starved male albino rats of Sprague Dawley strain were used and Diabetes was induced in the animals by single intraperitoneal injection of Streptozotocin at 60 mg/kg body weight dose prepared in 0.1M citrate buffer (pH 4.5). Fasting blood glucose level was measured by using a Glucometer (ACCU-CHEK II; Roche Diagnostics, USA) after 48 hours and animals showing blood glucose level above 300 mg/di were considered as diabetic.
The diabetic animals were divided into four groups (Group 1 to 4) each consisting 6 rats. Group 1 received 0.4 ml vehicle (1% gum acacia). Group 2 received the test compound 5 at an oral dose of 100 mg/kg/body weight. Group 3 was given compound 6 at an oral dose of 100 mg/kg/body weight. The standard antidiabetic drug Januvia was given to the animals of Group 4 at an oral dose of 50 mg/kg body weight. […] Food but not water was withheld from the cages during the course of experimentation. Percent hyperglycemic activity was determined by comparing the AUC (area under curve) of experimental groups with that of the vehicle treated control group.
as §2

[3] = biological target: T1, human recombinant PTP1B enzyme (Homo sapiens, UniProt P18031); test: Protein tyrosine phosphatase-1B assay (colorimetric kit BML-AK 822); format: biochemical; conditions: for inhibition at 0.3 µM: read-out: % Inhibition at different Inhibitor concentration 0.3 μM; for inhibition at 1 µM: read-out: % Inhibition at different Inhibitor concentration 1 μM; for inhibition at 3 µM: read-out: % Inhibition at different Inhibitor concentration 3 μM; for inhibition at 5 µM: read-out: % Inhibition at different Inhibitor concentration 5 μM; for pIC50: from % inhibition at 5 concentrations 0.3-10 μM
T1 construct: purchased Enzo Life Sciences, USA BML-AK 822
T1 sequence (P18031 1-322 limits assumed): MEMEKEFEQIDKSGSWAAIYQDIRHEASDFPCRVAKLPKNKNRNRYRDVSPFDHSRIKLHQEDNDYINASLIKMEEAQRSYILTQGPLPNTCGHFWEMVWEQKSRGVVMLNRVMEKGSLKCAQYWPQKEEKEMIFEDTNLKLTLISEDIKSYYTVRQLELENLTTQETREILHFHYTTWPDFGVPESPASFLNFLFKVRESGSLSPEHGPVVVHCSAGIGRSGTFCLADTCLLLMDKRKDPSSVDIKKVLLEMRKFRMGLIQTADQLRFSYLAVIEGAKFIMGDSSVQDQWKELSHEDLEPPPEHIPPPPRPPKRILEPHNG
Experimental: Assay was done according to the Kit manufacturers protocol, in brief the reaction was carried out in 96 well flat bottomed microtiter plate by the addition of assay buffer, solution of test compounds and diluted PTP1B enzyme. Enzyme reaction was initiated by addition of 50 μl of warmed 2× substrate then incubated the plate at 30° C. for 30 min. After incubation for 30 min. Reaction was terminated by addition of 25 μl of biomol red reagent and mixed thoroughly by repeated pipetting. […] Volumes and dilution of other component were accordingly as instructed in the manual provided in the kit. PTP1B phosphatase acting on the phosphopeptide substrate and release phosphate. The detection of free phosphate released is based on classic Malachite green assay. After adding biomol red to reaction wells after 30 minutes of incubation as described earlier the plate was incubated for another 20 min to develop the colour. Absorbance was recorded at 620 nm. on a microplate reader.

[4] = Table 5, evaluated at 10 μM concentration, read-out: % Inhibition (PTP-1B)
[5] = Table 6 dose response, 10 μM, read-out: % Inhibition at different Inhibitor concentration 10 μM

melting point | Compound | Blood Glucose Profile 0 min [1] | Blood Glucose Profile 30 min [1] | Blood Glucose Profile 60 min [1] | Blood Glucose Profile 90 min [1] | Blood Glucose Profile 120 min [1] | % Antihyperglycaemic activity SLM [1] | improvement in glucose tolerance [1] | Blood Glucose Profile 0 min (Pre treatment) [2] | Blood Glucose Profile 30 min (Post treatment) [2] | Blood Glucose Profile 60 min (Post treatment) [2] | Blood Glucose Profile 90 min (Post treatment) [2] | Blood Glucose Profile 120 min (Post treatment) [2] | Blood Glucose Profile 180 min (Post treatment) [2] | Blood Glucose Profile 240 min (Post treatment) [2] | Blood Glucose Profile 300 min (Post treatment) [2] | Blood Glucose Profile 1440 min (Post treatment) [2] | % Antihyperglycaemic activity STZ 0-5 h AUC [2] | % Antihyperglycaemic activity STZ 0-24 h AUC [2] | lowering in the hyperglycaemia of the diabetic rats [2] | other results
178 to 180 °C | COC(=O)c1c(SC)cc(-c2ccc(C)cc2)c2c1-c1cn(-c3ccccc3)nc1CC2 [compound 5, methyl 8-(methylthio)-2-phenyl-6-p-tolyl-4,5-dihydro-2H-benzo[e]indazole-9-carboxylate] | 66.2 ± 3.05 mg/dL | 107.4 ± 7.76 mg/dL | 104.8 ± 5.12 mg/dL | 108.3 ± 3.59 mg/dL | 109.8 ± 7.86 mg/dL | 35.8% | significant improvement in glucose tolerance | 346.6 ± 6.19 mg/dL | 434.2 ± 12.4 mg/dL | 481.2 ± 11.8 mg/dL | 447.0 ± 8.16 mg/dL | 434.8 ± 11.7 mg/dL | 385.6 ± 5.8 mg/dL | 353.6 ± 16.4 mg/dL | 362.4 ± 17.6 mg/dL | 483.0 ± 3.95 mg/dL | 23.1% | 18.2% | significant lowering in the hyperglycaemia | inhibition at 10 µM [3, 4]: 83.8%; inhibition at 0.3 µM ([3]; Table 6 dose response): 3.89%; inhibition at 1 µM ([3]; Table 6 dose response): 13.2%; inhibition at 3 µM ([3]; Table 6 dose response): 24.1%; inhibition at 5 µM ([3]; Table 6 dose response): 36.7%; inhibition at 10 µM [3, 5]: 67.8%; pIC50 [3]: 5.15
182 to 184 °C | COC(=O)c1c(SC)cc(-c2cccc3ccccc23)c2c1-c1cn(-c3ccccc3)nc1CC2 [compound 6, methyl 8-(methylthio)-6-(naphthalen-1-yl)-2-phenyl-4,5-dihydro-2H-benzo[e]indazole-9-carboxylate] | 66.2 ± 2.63 mg/dL | 120.0 ± 7.30 mg/dL | 111.2 ± 7.30 mg/dL | 110.4 ± 4.73 mg/dL | 107.4 ± 4.95 mg/dL | 23.5% | significant improvement in glucose tolerance | 344.0 ± 3.91 mg/dL | 444.6 ± 16.6 mg/dL | 492.0 ± 13.6 mg/dL | 490.2 ± 11.2 mg/dL | 474.8 ± 15.0 mg/dL | 426.0 ± 16.0 mg/dL | 385.8 ± 15.6 mg/dL | 355 ± 14.3 mg/dL | 442.4 ± 9.64 mg/dL | 18.9% | 20.1% | significant lowering in the hyperglycaemia | inhibition at 10 µM [3, 4]: 76.9%; inhibition at 0.3 µM ([3]; Table 6 dose response): 0.5%; inhibition at 1 µM ([3]; Table 6 dose response): 11.2%; inhibition at 3 µM ([3]; Table 6 dose response): 16.2%; inhibition at 5 µM ([3]; Table 6 dose response): 28.8%; inhibition at 10 µM [3, 5]: 62.3%; pIC50 [3]: 5.09
